The text below walks through data of patent US10035800B2 (AbbVie Inc., priority 2013, dated 2018).

SMILES strings stand for the structures. Like-named read-outs stand apart in the source and are kept apart here.

Assay [1] relates to IL-6 (Interleukin-6) production. The assay can be described thus: LPS (lipopolysaccharide) induced IL-6 production mouse assay. Type of assay: in vivo, mice. The conditions noted are these: oral administration 1 h before LPS 2.5 mg/kg ip, serum 2 h after LPS, p < 0.05 vs vehicle. The procedure:
LPS (Lipopolysaccharide) Induced IL-6 Production Mouse Assay
Compounds of the Examples listed in Table 2 were assayed for their ability to inhibit LPS (lipopolysaccharide) induced IL-6 (Interleukin-6) production in mice. Fox Chase SCID® female mice (Charles Rivers Labs, 5 per group) or CD1 female mice (5 per group) received an intraperitoneal challenge of lipopolysaccharide (2.5 mg/kg, L2630 E. coli 0111:B4) one hour after oral administration of compounds. Mice were euthanized 2 hours after lipopolysaccharide injection, blood was removed by cardiac puncture, and then the serum harvested from the blood samples was frozen at −80° C. On the day of the assay the serum samples were brought to room temperature and then diluted 1:20 in phosphate-buffered saline containing 2% bovine serum albumin. Interleukin-6 measurements were performed using a cytokine assay from Meso Scale Discovery (Gaithersburg, Md.) for mouse serum analysis according to the manufacturer's protocol and read on a SECTOR Imager 6000 (Meso Scale Discovery, Gaithersburg, Md.) instrument. Statistical analysis was performed using Prism software (version 5.0) incorporating Dunnett's one way ANOVA. The IL-6 mean and standard deviation of the group of vehicle treated animals were compared with the IL-6 mean and standard deviation of the group treated with drug. A p value <0.05 means that there is less than a 5% probability that the mean values in the two groups are equal.

Assay [2] concerns breast cancer cell line MX-1. The assay can be described thus: MX-1 cell line proliferation assay. The assay is classed as cell-based. The conditions noted are these: MX-1 cells, 3-day proliferation assay, Cell Titer Glo, read-out: Cellular proliferation: EC50. An outline of the steps: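 MX-1 cells at 5000/well, in RPMI 1640 with 10% FBS, were exposed to compounds for 3 days. Final concentrations ranged 3 μM–0.1 nM or 1 μM–0.03 nM, in 3-fold steps. Cell Titer Glo luminescence was normalized to DMSO and fitted sigmoidally for EC50; overall MSR 2.1.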

The target in a further assay is T1, BRD4 (BDII_E352-M457) (Homo sapiens, UniProt O60885).
T1 construct: protocol; made in house
The experiment in a line: TR-FRET bromodomain binding assay, second bromodomain of BRD4. Particulars: 30 nM probe. The essentials:
(§1)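 Compound dilutions are mixed with His-tagged BRD4 bromodomain (8 nM), europium anti-His antibody (1 nM) and Alexa647 probe (BDI 100 nM; BDII 30 nM) in pH 6.0 buffer containing 2% DMSO. After equilibrating one hour at room temperature, TR-FRET is measured; percent inhibition is fitted to obtain IC50, from which Ki is calculated.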

The target of another assay is T2, BRD4 (BDI_K57-E168) (Homo sapiens, UniProt O60885).
T2 construct: BD1: amino acids K57-E168; made in house
The experiment in a line: TR-FRET bromodomain binding assay, first bromodomain of BRD4. The conditions noted are these: 100 nM probe. An outline of the steps:
as §1
For orientation: TR-FRET usually uses a lanthanide donor and a delayed reading to cut background.

[3] abbreviates: TR-FRET assay protocol G (compound 0.92 μM-15 pM).
The mark [4] stands for this setting: TR-FRET assay protocol E (compound 9.19 μM-150 pM).

Regarding `Cn1cc2c3c(c[nH]c3c1=O)CN(CC1CCOC1)c1ccc(CS(C)(=O)=O)cc1-2` (centres unmarked) [Example 26], the “% inhibition of LPS induced IL-6 production” value (“% inhibition” below) in assay [1] (mouse strain SCID) came out at 88%. Besides, the EC50 in assay [2] turned out to be 1.03 nM. The inhibition constant Ki was 0.719 nM at BRD4 (BDII_E352-M457) (setting [3]) and 0.701 nM at BRD4 (BDI_K57-E168) (setting [3]).

In the case of `Cn1cc2c3c(c[nH]c3c1=O)CN(C1CCC(F)(F)CC1)c1ccc(CS(C)(=O)=O)cc1-2` [Example 30, 4-(4,4-difluorocyclohexyl)-10-methyl-7-((methylsulfonyl)methyl)-3,4-dihydro-1H-1,4,10-triazadibenzo[cd,f]azulen-11(10H)-one], the “% inhibition” value in assay [1] (mouse strain SCID) worked out at 81%. In addition, the EC50 in assay [2] was found to be 1.39 nM. Moreover, the Ki on BRD4 (BDII_E352-M457) (setting [4]) is 1.36 nM; on BRD4 (BDI_K57-E168) (setting [4]), 4.98 nM.

With `[2H]C1([2H])c2c[nH]c3c(=O)n(C)cc(c23)-c2cc(CS(C)(=O)=O)ccc2N1c1ccc(F)cc1` [Example 31, 4-(4-fluorophenyl)-(3,3-^2H2)-10-methyl-7-((methylsulfonyl)methyl)-3,4-dihydro-1H-1,4,10-triazadibenzo[cd,f]azulen-11(10H)-one], the “% inhibition” value in assay [1] (mouse strain SCID) was 83%. For the same compound, the EC50 in assay [2] (Homo sapiens, MX1, 72 h) turned out to be 0.752 nM. Besides, the Ki at BRD4 (BDII_E352-M457) (setting [3]) was 1.18 nM; at BRD4 (BDI_K57-E168) (setting [3]), 1.67 nM.

Regarding `Cn1cc2c3c(c(C(N)=O)[nH]c3c1=O)CN(c1ccc(Cl)cc1)c1ccc(CS(C)(=O)=O)cc1-2` [Example 58, 4-(4-chlorophenyl)-10-methyl-7-((methylsulfonyl)methyl)-11-oxo-3,4,10,11-tetrahydro-1H-1,4,10-triazadibenzo[cd,f]azulene-2-carboxamide], the “% inhibition” value in assay [1] (mouse strain CD1) amounted to 39%. Further, the EC50 in assay [2] was found to be 5.38 nM. Also, the Ki on BRD4 (BDII_E352-M457) (setting [3]) is 0.617 nM; on BRD4 (BDI_K57-E168) (setting [3]) it was 2.02 nM.

Regarding `CCNC(=O)c1[nH]c2c(=O)n(C)cc3c2c1CN(c1ccc(Cl)cc1)c1ccc(CS(C)(=O)=O)cc1-3` [Example 59, 4-(4-chlorophenyl)-N-ethyl-10-methyl-7-((methylsulfonyl)methyl)-11-oxo-3,4,10,11-tetrahydro-1H-1,4,10-triazadibenzo[cd,f]azulene-2-carboxamide], the “% inhibition” value in assay [1] (mouse strain CD1) was 68%. In addition, in assay [2], the EC50 is 3.8 nM. The Ki at BRD4 (BDII_E352-M457) (setting [3]) was found to be 0.972 nM; at BRD4 (BDI_K57-E168) (setting [3]) it was 3.1 nM.

`CN1CCN(C(=O)c2[nH]c3c(=O)n(C)cc4c3c2CN(c2ccc(Cl)cc2)c2ccc(CS(C)(=O)=O)cc2-4)CC1` [Example 60, 4-(4-chlorophenyl)-10-methyl-2-(4-methylpiperazine-1-carbonyl)-7-((methylsulfonyl)methyl)-3,4-dihydro-1H-1,4,10-triazadibenzo[cd,f]azulen-11(10H)-one]: in assay [1] (mouse strain CD1), the “% inhibition” value came out at 44%. For the same compound, the EC50 in assay [2] was determined as 115 nM. The Ki worked out at 33.1 nM at BRD4 (BDII_E352-M457) (setting [3]) and 2.55 nM at BRD4 (BDI_K57-E168) (setting [3]).

As to `CC(C)CN1Cc2c[nH]c3c(=O)n(C)cc(c23)-c2cc(CS(C)(=O)=O)ccc21` [Example 149, 4-isobutyl-10-methyl-7-((methylsulfonyl)methyl)-3,4-dihydro-1H-1,4,10-triazadibenzo[cd,f]azulen-11(10H)-one], the “% inhibition” value in assay [1] (mouse strain CD1) is 86%. In addition, the EC50 in assay [2] stood at 1.93 nM. For the same compound, the Ki at BRD4 (BDII_E352-M457) (setting [3]) stood at 0.82 nM; at BRD4 (BDI_K57-E168) (setting [3]) it was 1.78 nM.

On to `Cn1cc2c3c(c[nH]c3c1=O)CN(C1CCOCC1)c1ccc(CS(C)(=O)=O)cc1-2` [Example 151, 10-methyl-7-((methylsulfonyl)methyl)-4-(tetrahydro-2H-pyran-4-yl)-3,4-dihydro-1H-1,4,10-triazadibenzo[cd,f]azulen-11(10H)-one], for which the “% inhibition” value in assay [1] (mouse strain CD1) turned out to be 57%. In assay [2], the EC50 was 4.26 nM. In addition, the Ki turned out to be 2.3 nM on BRD4 (BDII_E352-M457) (setting [3]) and 1.14 nM on BRD4 (BDI_K57-E168) (setting [3]).

The Ki is a measure of affinity in units of concentration, obtained from inhibition or displacement. Low values mean tighter binding, high ones weaker binding.
